# Bridge positions count the residues as written; N and C are the ends. Square brackets hold non-standard residues; d marks the D form. Peptide text beside a SMILES is read from it. Phe(4-Cl) = N[C@@H](Cc1ccc(Cl)cc1)C(=O)O; 2Nal = N[C@@H](Cc1ccc2ccccc2c1)C(=O)O; 4Pal = N[C@@H](Cc1ccncc1)C(=O)O; NMeK = CN[C@@H](CCCCN)C(=O)O
# How the values were obtained:
# [1] = target: hsst2 (Homo sapiens, UniProt P30874); assay: in vitro binding assay, hsst2
# [2] = target: hsst3 (Homo sapiens, UniProt P32745); assay: in vitro binding assay, hsst3
# hsst3, sequence (P32745 whole entry): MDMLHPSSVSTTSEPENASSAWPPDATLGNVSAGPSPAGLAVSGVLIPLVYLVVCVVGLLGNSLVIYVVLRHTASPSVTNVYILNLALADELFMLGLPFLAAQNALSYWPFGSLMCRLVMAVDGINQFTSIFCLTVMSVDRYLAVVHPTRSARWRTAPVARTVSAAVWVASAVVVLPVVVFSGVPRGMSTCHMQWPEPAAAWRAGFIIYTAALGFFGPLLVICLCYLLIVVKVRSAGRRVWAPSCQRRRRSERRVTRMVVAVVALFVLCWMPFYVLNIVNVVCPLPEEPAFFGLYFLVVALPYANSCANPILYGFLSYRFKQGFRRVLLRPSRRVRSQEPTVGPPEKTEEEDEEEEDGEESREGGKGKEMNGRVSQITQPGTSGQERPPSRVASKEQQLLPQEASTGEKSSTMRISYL
# [3] = target: hsst1 (Homo sapiens, UniProt P30872); assay: in vitro binding assay, hsst1
# hsst1, sequence (P30872 whole entry): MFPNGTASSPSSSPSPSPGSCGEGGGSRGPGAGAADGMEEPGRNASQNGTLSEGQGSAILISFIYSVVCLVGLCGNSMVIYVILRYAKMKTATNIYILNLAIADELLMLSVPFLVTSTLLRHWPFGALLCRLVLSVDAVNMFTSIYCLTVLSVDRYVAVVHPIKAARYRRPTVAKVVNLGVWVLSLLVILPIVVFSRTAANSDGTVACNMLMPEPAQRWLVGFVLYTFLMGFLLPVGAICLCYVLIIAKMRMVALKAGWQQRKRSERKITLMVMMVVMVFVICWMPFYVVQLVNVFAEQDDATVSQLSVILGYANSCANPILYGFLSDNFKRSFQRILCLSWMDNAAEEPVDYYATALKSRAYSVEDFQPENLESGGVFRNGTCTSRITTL
# [4] = target: hsst5 (Homo sapiens, UniProt P35346); assay: in vitro binding assay, hsst5
# hsst5, sequence (P35346 whole entry): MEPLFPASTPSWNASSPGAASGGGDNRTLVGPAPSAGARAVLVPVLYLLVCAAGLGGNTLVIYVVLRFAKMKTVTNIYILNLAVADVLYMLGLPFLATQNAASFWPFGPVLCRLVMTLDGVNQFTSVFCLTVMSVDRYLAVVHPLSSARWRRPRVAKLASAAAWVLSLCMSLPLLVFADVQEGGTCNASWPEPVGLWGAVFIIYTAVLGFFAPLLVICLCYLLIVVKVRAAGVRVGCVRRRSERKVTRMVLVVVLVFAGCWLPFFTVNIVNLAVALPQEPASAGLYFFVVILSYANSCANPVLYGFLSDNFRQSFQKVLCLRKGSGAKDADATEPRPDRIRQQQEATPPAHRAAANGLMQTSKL
# [5] = target: hsst4 (Homo sapiens, UniProt P31391); assay: in vitro binding assay, hsst4
# hsst4, sequence (P31391 whole entry): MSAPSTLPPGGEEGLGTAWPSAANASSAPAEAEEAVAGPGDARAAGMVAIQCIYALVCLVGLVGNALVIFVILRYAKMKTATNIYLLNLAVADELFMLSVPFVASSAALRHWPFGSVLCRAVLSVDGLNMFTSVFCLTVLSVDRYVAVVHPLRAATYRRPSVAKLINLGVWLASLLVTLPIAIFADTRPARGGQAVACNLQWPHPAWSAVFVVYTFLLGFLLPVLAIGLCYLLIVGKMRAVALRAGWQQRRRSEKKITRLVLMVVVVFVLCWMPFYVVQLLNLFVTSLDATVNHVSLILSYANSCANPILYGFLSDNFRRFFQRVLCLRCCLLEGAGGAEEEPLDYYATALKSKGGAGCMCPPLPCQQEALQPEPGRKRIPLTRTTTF
# hsst2, sequence (P30874 whole entry): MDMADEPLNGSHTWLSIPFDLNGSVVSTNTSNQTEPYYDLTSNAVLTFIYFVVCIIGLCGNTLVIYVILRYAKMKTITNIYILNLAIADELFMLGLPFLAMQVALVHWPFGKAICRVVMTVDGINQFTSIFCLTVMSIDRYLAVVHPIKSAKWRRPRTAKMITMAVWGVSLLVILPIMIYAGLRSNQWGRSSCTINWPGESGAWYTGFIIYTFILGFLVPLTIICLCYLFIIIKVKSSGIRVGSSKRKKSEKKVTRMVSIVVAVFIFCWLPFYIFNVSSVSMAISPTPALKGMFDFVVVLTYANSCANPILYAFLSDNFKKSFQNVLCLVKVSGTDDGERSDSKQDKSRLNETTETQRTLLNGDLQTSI
Compound,Ki [1] [nM],Ki [2] [nM],Ki [3] [nM],Ki [4] [nM],Ki [5] [nM]
"C[C@@H](O)[C@@H]1NC(=O)[C@H](CCCCN)N(C)C(=O)[C@@H](Cc2c[nH]c3ccccc23)NC(=O)[C@H](Cc2ccncc2)NC(=O)[C@H](NC(=O)[C@@H](N)Cc2ccc(Cl)cc2)CSSC[C@@H](C(=O)N[C@@H](Cc2ccc3ccccc3c2)C(N)=O)NC1=O [Compound ""B"", Cpa-[D-Cys-4-Pal-D-Trp-N-Me-Lys-Thr-Cys]-2-Nal-NH2] (H-[Phe(4-Cl)][dC][4Pal][dW][NMeK]TC[2Nal]-NH2; disulfide 2-7)",17.1,66,1000,6,1000
"C[C@@H](O)[C@@H]1NC(=O)[C@H](CCCCN)NC(=O)[C@@H](Cc2c[nH]c3ccccc23)NC(=O)[C@H](Cc2ccncc2)NC(=O)[C@H](NC(=O)[C@@H](N)Cc2ccc(Cl)cc2)CSSC[C@@H](C(=O)N[C@@H](Cc2ccc3ccccc3c2)C(N)=O)NC1=O [Compound ""A"", Cpa-[D-Cys-4-Pal-D-Trp-Lys-Thr-Cys]-2-Nal-NH2]",6.4,44,2760,86,711
